# Assay results as given in patent publication US4146622A, “Aziridinyl quinone anti-transplanted tumor agents” (priority 1977, dated 1979).
# Values joined by “and” are separate entries in the source; they are usually repeats but may differ in a detail not shown here. Identical values can stand only once. “Also recorded” adds a separate entry of the source. Like-named read-outs stand apart in the source and are kept apart here.
# Legend:
# [1] = tested on: P388 lymphocytic leukemia; assay: Intraperitoneal (IP) lymphocytic leukemia P388 transplanted mouse tumor test; format: in vivo, murine
# Description: ^b Ip tumor implantation, ip QD1-9 treatment schedule.
# (§1) The L1210, P388 and B16 test systems described in Table II utilize intraperitoneal (IP) tumor implantation and IP drug treatment while the Lewis lung system employs subcutaneous tumor implantation and IP treatment.
# Aqueous saline solution (0.9%) was used as the drug vehicle. Normally, five doses were employed per experiment with the top dose chosen to produce toxicity. The lower doses were 50% of each preceeding dose.
# Consistent with NCI antitumor test protocols, intraperitoneal (IP) administration of the drug was employed with all five tumor systems investigated. Tumor implantation was IP in the systems designated IP leukemia L1210 and P388 as well as B16 melanoma.
# [2] = Room temperature water solubility; format: physicochemical
# Procedure, shortened: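 Water added incrementally by pipet, with shaking, to a weighed amount of compound at room temperature until dissolved; values are approximate.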
# [3] = Octanol/H2O partition coefficient (log P); format: physicochemical; conditions: partition coefficient measured
# Description: ^(b) Octanol/H2 O values determined by C. Hansch and M. Yamakawa
# ependymoblastoma = assay: Intracerebral (IC) ependymoblastoma (EM) brain tumor test; format: in vivo, murine; conditions: for ILS (increase in life span) / T - C (average weight change of test group minus control) / Cures (animals alive per six on day of termination): Table III; for ILS (increase in life span) / T - C (average weight change of test group minus control): ic ependymoblastoma; for T - C (average weight change of test group minus control): day 5
# Lewis lung carcinoma = assay: Lewis lung carcinoma, subcutaneous tumor implantation; format: in vivo, murine
# Description: ^c Subcutaneous tumor implantation, ip QD5-15 treatment schedule.
# as §1
# lymphoid leukemia L1210 [4] = assay: Intraperitoneal (IP) lymphoid leukemia L1210 transplanted mouse tumor test; format: in vivo, murine; conditions: for ILS (increase in life span) / T - C (average weight change of test group minus control): Table II; for T - C (average weight change of test group minus control): day 5
# Description: ^(a) Day 1-9 treatment schedule (9 injections)
# ^(b) Day 1,5,9 treatment schedule (3 injections)
# ^(c) Day 1 only treatment schedule (1 injection)
# ^(f) Percentage increase in life span of treated animals [(treated
# survival .div. control survival) × 100%] - 100%
# B16 melanocarcinoma = assay: Intraperitoneal B16 melanocarcinoma transplanted mouse tumor test; format: in vivo, murine; conditions: for ILS (increase in life span): Table II
# [5] = tested on: P388 lymphocytic leukemia; assay: Intracerebral (IC) lymphocytic leukemia P388 test; format: in vivo, murine; conditions: for ILS (increase in life span): Table III
# Description: (§2) ^b Ic tumor implantation, ip QD1-9 treatment schedule.
# Central nervous system antitumor activity is given in Table III for the intracerebrally implanted L1210, P388, and ependymoblastoma tumor systems.
# All three CNS tumor models (Table III) use intracerebral (IC) tumor implantation and IP treatment.
# [6] = tested on: IP ascites tumor systems (leukemia L1210 and P388); assay: IP ascites tumor systems (leukemia L1210 and P388); format: in vivo, murine
# Description: (§3) The criterion for minimum activity, %ILS, is defined here as follows: Intraperitoneal and intracerebral leukemia L1210 and intraperitoneal leukemia P388, 25%; intraperitoneal B16 melanoma and intracerebral ependymoblastoma, 40%. Consistent with NCI antitumor test protocols, intraperitoneal (IP) administration of the drug was employed with all five tumor systems investigated. Tumor implantation was IP in the systems designated IP leukemia L1210 and P388 as well as B16 melanoma. Intracerebral (IC) tumor implantation was utilized in the IC L1210 and ependymoblastoma tumor systems.
# lymphoid leukemia L1210 [7] = assay: Intracerebral (IC) lymphoid leukemia L1210 test; format: in vivo, murine; conditions: for ILS (increase in life span): Table III
# Description: as §2
# (§4) The L1210, P388 and B16 test systems described in Table II utilize intraperitoneal (IP) tumor implantation and IP drug treatment while the Lewis lung system employs subcutaneous tumor implantation and IP treatment. All three CNS tumor models (Table III) use intracerebral (IC) tumor implantation and IP treatment.
# Consistent with NCI antitumor test protocols, intraperitoneal (IP) administration of the drug was employed with all five tumor systems investigated. Tumor implantation was IP in the systems designated IP leukemia L1210 and P388 as well as B16 melanoma. Intracerebral (IC) tumor implantation was utilized in the IC L1210 and ependymoblastoma tumor systems.
# [8] = tested on: transplanted mouse tumor test systems; assay: Transplanted mouse tumor test systems (overall statement); format: in vivo, murine
# Description: The criterion for minimum activity is defined here as follows: intraperitoneal and intracerebral L1210 leukemia, 25%; intraperitoneal and intracerebral P388 leukemia, 25%; B16 melanoma, 40%; Lewis lung carcinoma, 25%; and intracerebral ependymoblastoma, 40%.
# as §4, §3
# [9] = ip QD1-5, 1.00 mg/kg/injection, expt 133 (day 99)
# [10] = ip QD1-5, 1.00 mg/kg/injection, expts 136 and 144 (day 60)
# [11] = ip QD1-5, 2.00 mg/kg/injection, expt 133 (day 99)
# [12] = ip QD1-5, 2.00 mg/kg/injection, expts 136 and 144 (day 60)
# [13] = ip QD1-5, 4.00 mg/kg/injection, expt 136 (day 60)
# [14] = IP L1210, ip QD1-9, 0.88 mg/kg/injection
# [15] = IP L1210, ip QD1-9, 1.30 mg/kg/injection
# [16] = IP L1210, ip QD1-9, 6.25 mg/kg/injection
smiles,measurement,setting,value
"CCOC(=O)NC1=C(N2CC2)C(=O)C(NC(=O)OCC)=C(N2CC2)C1=O [Compound 9, 2,5-Diaziridinyl-3,6-bis (carboethoxyamino)-1,4-benzoquinone]",OD (optimum dose),[1]; IP P388,1 to 2 mg/kg
same,antitumor activity,[1]; IP P388,very active
same,ILS (increase in life span),"[1]; Table II, IP P388, ip QD1-9, 0.78 mg/kg/injection",111% and 99% and 112%
same,ILS (increase in life span),"[1]; Table II, IP P388, ip QD1-9, 1.56 mg/kg/injection",138% and 135% and 112%
same,T - C (average weight change of test group minus control),"[1]; Table II, IP P388, ip QD1-9, 6.25 mg/kg/injection, day 5",-6.1 grams
same,OD (optimum dose),"[1]; Table IV, (IP) P388, QD1-9",1.6 mg/kg/injection and 0.8 mg/kg/injection
same,% ILS,"[1]; Table IV, (IP) P388, QD1-9, at OD",138% and 135% and 112%
same,survivors of 6 test mice on experiment termination day,"[1]; Table IV, (IP) P388, QD1-9, at OD, day 30",1
same,ILS (%) P388,"[1]; Table XI, outstanding activity",138%
same,survivors (number in parentheses) P388,"[1]; Table XI, per 6 test animals, day 30",1
same,solubility,[2],appeared to be adequate
same,solubility,"[2]; water, approximate, read-out: aqueous solubility",~500 µg/mL
same,log P,[3],0.05
same,antitumor activity,ependymoblastoma; IC ependymoblastoma (EM),curative; also recorded: very active
same,ILS (increase in life span),"ependymoblastoma; ip QD1-5, 0.25 mg/kg/injection",30%
same,T - C (average weight change of test group minus control),"ependymoblastoma; ip QD1-5, 0.25 mg/kg/injection",-1.5 grams
same,ILS (increase in life span),"ependymoblastoma; ip QD1-5, 0.50 mg/kg/injection",62%
same,T - C (average weight change of test group minus control),"ependymoblastoma; ip QD1-5, 0.50 mg/kg/injection",-1.8 grams
same,ILS (increase in life span),ependymoblastoma; [9],348%
same,ILS (increase in life span),ependymoblastoma; [10],126% and 171%
same,ILS (increase in life span),ependymoblastoma; [11],349%
same,ILS (increase in life span),ependymoblastoma; [12],277% and 171%
same,ILS (increase in life span),ependymoblastoma; [13],276%
same,T - C (average weight change of test group minus control),"ependymoblastoma; ip QD1-5, 8.00 mg/kg/injection",-5.0 grams
same,Cures (animals alive per six on day of termination),ependymoblastoma; [9],3/6
same,Cures (animals alive per six on day of termination),ependymoblastoma; [10],1/6 and 5/6
same,Cures (animals alive per six on day of termination),ependymoblastoma; [11],4/6
same,Cures (animals alive per six on day of termination),ependymoblastoma; [12],5/6
same,Cures (animals alive per six on day of termination),ependymoblastoma; [13],4/6
same,OD (optimum dose),"ependymoblastoma; Table IV, (IC) ependymoblastoma, QD1-5",2 mg/kg/injection and 1 mg/kg/injection
same,% ILS,"ependymoblastoma; Table IV, (IC) ependymoblastoma, QD1-5, at OD",> 277% and > 202% and > 172% and > 171%
same,survivors of 6 test mice on experiment termination day,"ependymoblastoma; Table IV, (IC) ependymoblastoma, QD1-5, at OD, day 60",5 and 4 and 6
same,survivors (number in parentheses) EM,"ependymoblastoma; Table XI, per 6 test animals, day 60",5
same,TR (therapeutic ratio),ependymoblastoma; ependymoblastoma,4-8
same,optimum dose,ependymoblastoma; ependymoblastoma,1 to 2 mg/kg
same,survival,"ependymoblastoma; experiment 133, 2.0 mg/kg, day 99",A majority of the test animals were alive on day 99
same,antitumor activity,Lewis lung carcinoma; Lewis lung,Marginal activity
same,ILS (increase in life span),"Lewis lung carcinoma; Table II, sc Lewis lung, ip QD5-15, 2.00 mg/kg/injection",38% and 34%
same,activity (%ILS),"lymphoid leukemia L1210 [4]; IP L1210, Q4D schedule",54%
same,optimum dose,"lymphoid leukemia L1210 [4]; IP L1210, Q4D schedule",6.25 mg/kg
same,optimum dose (OD),"lymphoid leukemia L1210 [4]; IP L1210, QD1-9",2 to 3 mg/kg
same,"therapeutic ratio (TR, highest active dose divided by lowest active dose)","lymphoid leukemia L1210 [4]; IP L1210, QD1-9",approximately 4
same,increase in life span (ILS),"lymphoid leukemia L1210 [4]; L1210, Q4D and QD1-9 schedules",> 25%
same,antitumor activity,"lymphoid leukemia L1210 [4]; L1210 system, Q4D and QD1-9 schedules",very active
same,ILS (increase in life span),lymphoid leukemia L1210 [4]; [14],32%
same,T - C (average weight change of test group minus control),lymphoid leukemia L1210 [4]; [14],-1.4 grams
same,ILS (increase in life span),lymphoid leukemia L1210 [4]; [15],60%
same,T - C (average weight change of test group minus control),lymphoid leukemia L1210 [4]; [15],-2.3 grams
same,ILS (increase in life span),"lymphoid leukemia L1210 [4]; IP L1210, ip QD1-9, 2.00 mg/kg/injection",101% and 125%
same,ILS (increase in life span),lymphoid leukemia L1210 [4]; [16],27%
same,T - C (average weight change of test group minus control),lymphoid leukemia L1210 [4]; [16],-4.1 grams
same,T - C (average weight change of test group minus control),"lymphoid leukemia L1210 [4]; IP L1210, ip QD1-9, 12.50 mg/kg/injection",-5.0 grams
same,OD (optimum dose),"lymphoid leukemia L1210 [4]; Table IV, (IP) L1210, QD1-9",3 mg/kg/injection and 2 mg/kg/injection and 4 mg/kg/injection
same,% ILS,"lymphoid leukemia L1210 [4]; Table IV, (IP) L1210, QD1-9, at OD",169% and 113% and 101% and 100%
same,ILS (%) IP L1210,"lymphoid leukemia L1210 [4]; Table XI, outstanding activity",169%
same,ILS,"lymphoid leukemia L1210 [4]; standard IP L1210 test, QD1-9",> 100%
same,OD (optimum dose),B16 melanocarcinoma; B16,3.12 mg/kg
same,antitumor activity,B16 melanocarcinoma; B16 melanoma,very active
same,B16 melanoma activity (ILS),B16 melanocarcinoma; OD of 3.12 mg/kg,≤ 70%
same,ILS (increase in life span),"B16 melanocarcinoma; B16, ip QD1-9, 1.56 mg/kg/injection",38% and 44% and 58%
same,ILS (increase in life span),"B16 melanocarcinoma; B16, ip QD1-9, 3.12 mg/kg/injection",58% and 43% and 70%
same,OD (optimum dose),"B16 melanocarcinoma; Table IV, (IP) B16, QD1-9",3 mg/kg/injection
same,% ILS,"B16 melanocarcinoma; Table IV, (IP) B16, QD1-9, at OD",94% and 70% and 62%
same,ILS (%) B16,"B16 melanocarcinoma; Table XI, outstanding activity",70%
same,antitumor activity,[5]; IC P388,substantial
same,ILS (increase in life span),"[5]; ic P388, ip QD1-9, 0.39 mg/kg/injection",7% and 2%
same,ILS (increase in life span),"[5]; ic P388, ip QD1-9, 0.78 mg/kg/injection",27% and 25%
same,ILS (increase in life span),"[5]; ic P388, ip QD1-9, 1.56 mg/kg/injection",37% and 51%
same,ILS (increase in life span),"[5]; ic P388, ip QD1-9, 3.12 mg/kg/injection",39% and 31%
same,OD (optimum dose),"[5]; Table IV, (IC) P388, QD1-9",1.5 mg/kg/injection and 3 mg/kg/injection
same,% ILS,"[5]; Table IV, (IC) P388, QD1-9, at OD",51% and 39%
same,antitumor activity,[6],does not give multiple cures
same,OD (optimum dose),lymphoid leukemia L1210 [7]; IC L1210,3.12 mg/kg
same,antitumor activity,lymphoid leukemia L1210 [7]; IC L1210,substantial
same,ILS,"lymphoid leukemia L1210 [7]; IC L1210, OD 3.12 mg/kg",79% and 84%
same,ILS (increase in life span),"lymphoid leukemia L1210 [7]; ic L1210, ip QD1-9, 1.56 mg/kg/injection",51% and 46%
same,ILS (increase in life span),"lymphoid leukemia L1210 [7]; ic L1210, ip QD1-9, 3.12 mg/kg/injection",84% and 79%
same,ILS (increase in life span),"lymphoid leukemia L1210 [7]; ic L1210, ip QD1-9, 6.25 mg/kg/injection",10% and 3%
same,OD (optimum dose),"lymphoid leukemia L1210 [7]; Table IV, (IC) L1210, QD1-9",3 mg/kg/injection and 5 mg/kg/injection
same,% ILS,"lymphoid leukemia L1210 [7]; Table IV, (IC) L1210, QD1-9, at OD",84% and 79% and 63% and 58%
same,ILS (%) IC L1210,"lymphoid leukemia L1210 [7]; Table XI, outstanding activity",84%
same,toxicity,[8],reasonably toxic material
same,antitumor activity,[8]; IC and other transplanted mouse tumor systems,very substantial activity; also recorded: Antitumor activity was observed; also recorded: intracerebral (IC) as well as IP antitumor activity
same,TR (therapeutic ratio),"[8]; last three systems (P388, B16, Lewis lung)",3-4
